Data reported in US12624068B2, “Exon skipping by peptide nucleic acid derivatives” (OliPass Corporation, priority 2016, dated 2026).

System: mdx mice
Experiment: Rotarod test in mdx mice
Type: in vivo, mouse
Conditions: 100 pmole/Kg subcutaneous 3× per week
Protocol: Given with the exon skipping potential, “DMD-ASO 1” was evaluated in mdx mice for its ability to improve muscle function by rotarod test as described below.
[Grouping] 6 weeks old male mdx mice were trained for rotarod test over a period of 2 weeks, and then randomly assigned into 3 groups of 0 (negative control), 100 and 1,000 pmole/Kg “DMD-ASO 1” based on individual scores by rotarod test in Day 0, i.e., the day of grouping. (N=10 per group)
[ASO Treatment] The injection solutions were prepared by serially diluting the ASO to 20 nM and 200 nM in PBS. Animals were subcutaneously administered with vehicle (PBS, negative control), 20 nM “DMD-ASO 1” (100 pmole/Kg), or 200 nM “DMD-ASO 1” (1,000 pmole/Kg) at 5 mL/Kg, 3× per week over a period of Day 0 to Day 21.
[Rotarod Test and Statistical Analysis] Mice were subjected to rotarod test on a rotarod apparatus (Model #47650, Ugo Basile) with an acceleration schedule of 4 rpm to 45 rpm over 60 seconds. The latency to fall (i.e., the duration that animal remained on the rotarod) was scored for each individual animal. Statistical significance was evaluated by student's t-test against the negative control group.

Substance: Fethoc-A(5)GA-G(6)CC(1O2)-TCA-A(5)AA(5)-T-NH2 (antisense AGAGCCTCAAAAT; Fethoc N-cap, C-terminal amide, chemistry not fully specified) [DMD-ASO 1]
- muscle function by rotarod test: showed a strong propensity of improvement, but was not significant
